Patent US11795460B2, “Compositions and methods for TTR gene editing and treating ATTR amyloidosis” (Intellia Therapeutics, Inc., priority 2017, dated 2023)

Experiments:
TTR [1] = test: TTR editing in HepG2 cells transfected with Spy Cas9 mRNA and dgRNAs (Table 6); format: cell-based, human; details: HepG2 cells co-transfected with Spy Cas9 mRNA (SEQ ID NO:2) and dgRNAs
In short: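 HepG2 cells were transfected sequentially by lipofection with Spy Cas9 mRNA (100 ng), then crRNA plus tracer RNA (25 nM each), and harvested at 24, 48 or 72 h. Editing was measured by amplicon NGS at the TTR target site as the fraction of reads with indels or substitutions.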

TTR [2] = test: TTR editing in primary human hepatocytes electroporated with Spy Cas9 protein loaded with dgRNAs (Table 7); format: cell-based; details: dgRNA electroporated with Spy Cas9 protein (RNP)
In short: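 Primary human or cynomolgus hepatocytes electroporated (Lonza P3 buffer, program EX-147) with Spy Cas9 RNP carrying pre-annealed crRNA/trRNA dual guides. Genomic DNA harvested at 24, 48 or 72 h; target amplicons sequenced by Illumina MiSeq. Percent editing = reads with indels or substitutions over total reads.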

TTR [3] = test: TTR editing in HEK293_Cas9 cells transfected with dgRNAs (Table 4); format: cell-based, human; details: HEK293_Cas9 cells (constitutively express Spy Cas9) transfected with dgRNAs
In short: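 Spy Cas9-expressing HEK293 cells were transfected by lipofection with crRNA (25 nM) plus trRNA (25 nM) and harvested at 24, 48 or 72 h. The target site was PCR-amplified and sequenced on MiSeq. Percent editing is reads with indels or substitutions over total reads.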

TTR [4] = test: TTR editing in primary human hepatocytes transfected with Spy Cas9 protein (RNP) loaded with dgRNAs (Table 8); format: cell-based; details: dgRNA transfected with Spy Cas9 protein (RNP)
In short: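 Primary human hepatocytes were lipofected (RNAiMAX) with RNP of Spy Cas9 (10 nM) plus pre-annealed crRNA (10 nM) and trRNA (10 nM) and harvested 24, 48 or 72 h later. Target-site amplicons were sequenced on Illumina MiSeq and aligned to hg38; percent editing = reads with indels or substitutions over total reads.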

Row | Sequence | Avg % Deletion (TTR [1]) | Avg % Edit (TTR [1]) | Avg % Insert (TTR [1]) | Avg % Deletion (TTR [2]) | Avg % Edit (TTR [2]) | Avg % Insert (TTR [2]) | Avg % Deletion (TTR [3]) | Avg % Edit (TTR [3]) | Avg % Insert (TTR [3]) | Avg % Deletion (TTR [4]) | Avg % Edit (TTR [4]) | Avg % Insert (TTR [4])
1 | GGGAUUGGUGACGACAGCCG (tested as dual guide RNA, chemistry not given here) [CR003390] | 2.44% | 24.88% | 22.44% | 0.23% | 15.97% | 15.80% | 23.71% | 28.02% | 4.31% | 0.24% | 16.09% | 15.85%
2 | GUGAGUCUGGAGAGCUGCAU (tested as dual guide RNA, chemistry not given here) [CR003360] | 2.38% | 41.31% | 38.94% | 0.63% | 32.23% | 31.67% | 19.98% | 22.68% | 2.70% | 1.19% | 31.47% | 30.27%
3 | UACUCACCUCUGCAUGCUCA (tested as dual guide RNA, chemistry not given here) [CR003372] | 2.42% | 14.57% | 12.14% | 1.77% | 12.17% | 10.47% | 11.99% | 15.24% | 3.25% | 1.81% | 17.56% | 15.74%
4 | UCUAGAACUUUGACCAUCAG (tested as dual guide RNA, chemistry not given here) [CR003345] | 4.45% | 10.58% | 6.12% | 13.57% | 48.07% | 34.53% | 16.01% | 35.02% | 19.00% | 7.91% | 28.90% | 21.00%
5 | UGGACUGGUAUUUGUGUCUG (tested as dual guide RNA, chemistry not given here) [CR003340] | 31.65% | 37.76% | 6.12% | 6.50% | 12.03% | 5.60% | 14.50% | 42.38% | 27.88% | 4.50% | 10.44% | 5.94%
6 | UGUAGAAGGGAUAUACAAAG (tested as dual guide RNA, chemistry not given here) [CR003365] | 11.11% | 46.88% | 35.77% | 6.83% | 42.37% | 35.57% | 24.61% | 36.43% | 11.83% | 7.54% | 47.78% | 40.24%
7 | UUCUUUGGCAACUUACCCAG (tested as dual guide RNA, chemistry not given here) [CR003357] | 3.46% | 45.83% | 42.37% | 0.77% | 36.23% | 35.47% | 37.85% | 43.23% | 5.38% | 0.90% | 49.35% | 48.45%
8 | UUUGACCAUCAGAGGACACU (tested as dual guide RNA, chemistry not given here) [CR003344] | 3.62% | 33.43% | 29.81% | 6.10% | 39.40% | 33.30% | 29.54% | 33.87% | 4.32% | 4.48% | 35.45% | 30.97%
